Test results from patent publication US10463709B2, “Short synthetic peptide for treating diseases and/or conditions related to angiogenesis” (MacKay Memorial Hospital, priority 2015, dated 2019).
Entries after “also recorded” stand apart in the source; their conditions may differ. Ends that are not written are not given here.

Key:
B16-F10 melanoma cells = test: Experimental pulmonary metastasis in mice; assay type: in vivo, C57BL/6 mice
Summary of the method: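 Female C57BL/6 mice (6 weeks) received 2×10^5 B16-F10 cells i.v. via tail vein. Peptide, control peptide (10 mg/kg) or DMSO vehicle given i.p. every 2 days, 5 mice per group. Visible surface lung colonies counted under a dissecting microscope on day 8.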

[1] = tested on: rat model of laser-induced wet AMD; test: Laser-induced wet AMD, rat model; assay type: in vivo; conditions: fluorescein angiography day 14; vs PBS vehicle
Description: Further, the effect of 7-mer or 7-mer DD on rat model of laser-induced wet AMD was also investigated. Fluorescein angiography images were obtained on day 14 after laser burn, and the images were subsequently scored. Results are depicted in FIG. 14.

HUVECs [2] = test: Endothelial cell capillary-like tube formation assay; assay type: cell-based
[3] = tested on: VEGF-induced corneal neovascularization; test: Mouse corneal angiogenesis assay; assay type: in vivo, C57BL/6 mice; conditions: VEGF 200 ng; peptide 2.5 μg in micropellet
Method: Briefly, corneal micropockets were created on 6-week-old C57BL/6 mice by use of a needle. A micropellet of sucrose aluminum sulfate and hydron polymer containing 200 ng VEGF with or without 2.5 μg peptide was plated into each corneal pocket. Eyes were then photographed by a slit-lamp biomicroscope on day 7 after micropellet implantation. Ingrowth of the blood vessels into avascular cornea toward pellet was scored as positive response. The results were reported as positive corneas of total implant.

HUVECs [4] = test: Apoptosis assay (annexin V-FITC); assay type: cell-based; conditions: treatment for 16 hrs; annexin V-FITC staining
Method: The percentage of apoptotic HUVEC cells was assayed using TACS annexin V-FITC kit. The percentage of annexin V-positive cells was determined using in situ staining according to the manufacturer's instruction. The cell number was determined by counterstaining with Hoechst 33342. The nuclei in ten randomly selected fields of the three different chambers (˜7200 cells) were counted. Specimens were examined and photographed on a Zeiss epifluorescence microscope (×100, 10 fields/sample). Pictures were recorded on Zeiss software.

RPMI8226 cells = test: MTT assay, VEGF-induced proliferation of RPMI8226 cells; assay type: cell-based
Summary of the method: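 After 24 h serum starvation, cells seeded at 3×10^5/well and cultured 24 h in serum-free RPMI1640 with 25 μM peptide, VEGF serving as proliferation stimulus. Viability by MTT (4 h, 37° C), DMSO solubilisation 20 min, absorbance at 570 nm.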

[5] = tested on: human uterine sarcoma cells (MES-SA/Dx5); test: Tumorigenicity assay, xenografted human uterine sarcoma; assay type: in vivo, nude mice; conditions: 10 mg/kg intraperitoneal every 2 days for 10 days
Method: MES-SA/Dx5 cells (5×10^6 cells in 0.1 ml) were implanted by subcutaneous injections in the right flank region of female nude mice (n=24, each animal weighted about 20 g before the assay began). The experiments were approved by the Mackay Memorial Hospital Review Board for animal investigation. Treatment was initiated in animals when the tumor volume was above 80 mm^3. Vehicle DMSO, the present synthetic peptide or the control peptide (10 mg/kg) was administered by intraperitoneal injections every 2 days. Tumor progression was monitored for 10 days; size of the tumor was measured every 3 to 5 days with a caliper and the volume was calculated using the following formula: ½×length×width^2.
To this purpose, human uterine sarcoma cells (MES-SA/Dx5) were implanted in nude mice to induce tumor formation, and when the volume of each tumor reached 80 mm^3, animals were then treated with vehicle alone, or the 7-mer peptide at the dose of 10 mg/kg, every 2 days for 10 days. Results are depicted in FIG. 9.

How did the “effect on number of colonies on the surface of the lung / in vivo metastasis” value (B16-F10 melanoma cells; 10 mg/Kg intraperitoneal every 2 days) turn out when “NH2-Asp-Leu-Tyr-Arg-Val-Arg-Ser-COOH (DLYRVRS; not fully specified (N-terminus, C-terminus); printed as NH2-Asp-Leu-Tyr-Arg-Val-Arg-Ser-COOH) [7-mer]” was run?
Its value is “capable of reducing the number of colonies; also recorded: may suppress in vivo metastasis”.

And the No. lung colonies (B16-F10 melanoma cells; 10 mg/Kg intraperitoneal every 2 days, day 8, n = 5)?
The No. lung colonies was 72 ± 16.0.

What about the “Inhibition (%)” value (B16-F10 melanoma cells; lung colonies vs vehicle, 10 mg/Kg) of the same substance?
The value was 67.9%.

And the “lesions caused by the laser burn” value [1]?
Its value is “significantly ameliorated”.

What about the “effect on VEGF-induced tube formation” value (HUVECs [2]; HUVECs, VEGF, 6 hrs) of the same substance?
The value was “inhibited”.

What about the “Tube length (Fold)” value (HUVECs [2]; VEGF (10 ng/mL) + 25 μM peptide, vs untreated HUVECs) of the same substance?
Its value is 1.24 ± 0.23 Fold.

What about the “VEGF-induced neovascularization in the cornea” value [3] of the same substance?
Its value is “completely abolished”.

And the “percentage of apoptotic HUVECs” value (HUVECs [4])?
The value was 32.4±3.8%.

And the “dose dependence of inhibitory action on VEGF-induced cell proliferation” value (RPMI8226 cells; 1 to 25 μM, RPMI8226 cells)?
The value was “dose dependent manner”.

What about the “effect on VEGF-induced proliferation of RPMI8226 cells” value (RPMI8226 cells; VEGF 50 ng/ml, 25 μM peptide, 24 hrs, MTT) of the same substance?
Its value is “suppressed”.

What about the tumor volume [5] of the same substance?
The tumor volume was 125±15.4 mm^3.
